Data: patent US20170298056A1, “SMALL MOLECULE INHIBITORS OF HIV-1 ENTRY AND METHODS OF USE THEREOF” (Dana-Farber Cancer Institute, Inc., priority 2014, published 2017)
pIC50: −log10 of the molar value. Where two headings read alike, the source gives them in different places.

How the values were obtained:
[1] = system: all CCR5-using HIV-1 isolates; assay: Viral infection assay, panel of CCR5-using HIV-1 isolates; format: cell-based; conditions: Cf2Th-CD4/CCR5 cells
Procedure: Production of recombinant HIV-1 expressing luciferase. […] After 48 hours, the supernatant was collected, buffered with 50 mM Hepes pH 7.4 (final concentration) and centrifuged for 5 minutes at 750×g and 4° C. The virus-containing supernatant was used directly or frozen at −80° C.
Viral infection assay. Each test compound was serially diluted in DMSO in a 96-well B&W isoplate (PerkinElmer, Boston, Mass.) using an HP D300 Digital Dispenser, to a final volume of 450 nl. DMSO was used as a control. Viruses pseudotyped with a specific Env were added to each well and incubated briefly at room temperature. Cf2Th-CD4/CCR5 cells were detached with StemPro Accutase Cell Dissociation Reagent (Invitrogen, cat #A11105-01), washed once, and 5000 cells were added to each well. […] Following incubation, the medium was aspirated and cells were lysed with 30 μl of Passive Lysis Buffer (Promega, cat #E1941). The activity of the firefly luciferase, which was used as a reporter protein in the system, was measured with a Centro LB 960 luminometer (Berthold Technologies, Oak Ridge, Tenn.). One hundred microliters of assay buffer (15 mM MgSO4, 15 mM KH2PO4/K2HPO4 pH 7.8, 1 mM ATP and 1 mM DTT) was injected to each well, followed by a 50 μl injection of 1 mM Dluciferin potassium salt (BD Pharmingen, San Jose, Calif.); luminescence was measured for 2 sec. […]

HIV-1KB9 = assay: Viral infection assay, dual-tropic isolate; format: cell-based; conditions: dual-tropic HIV-1KB9
Procedure: Production of recombinant HIV-1 expressing luciferase. 293T cells were cotransfected with an Env expression plasmid, a firefly luciferase-expressing lentiviral vector (pHIVcc2.luc) and an HIV-1-based packaging plasmid (psPAX2, cat #11348, NIH AIDS Research and Reference Reagent Program) at a ratio of 1:6:3 using Effectene (Qiagen, Germantown, Md.). After 48 hours, the supernatant was collected, buffered with 50 mM Hepes pH 7.4 (final concentration) and centrifuged for 5 minutes at 750×g and 4° C. The virus-containing supernatant was used directly or frozen at −80° C.
Viral infection assay. Each test compound was serially diluted in DMSO in a 96-well B&W isoplate (PerkinElmer, Boston, Mass.) using an HP D300 Digital Dispenser, to a final volume of 450 nl. DMSO was used as a control. Viruses pseudotyped with a specific Env were added to each well and incubated briefly at room temperature. […] The activity of the firefly luciferase, which was used as a reporter protein in the system, was measured with a Centro LB 960 luminometer (Berthold Technologies, Oak Ridge, Tenn.). One hundred microliters of assay buffer (15 mM MgSO4, 15 mM KH2PO4/K2HPO4 pH 7.8, 1 mM ATP and 1 mM DTT) was injected to each well, followed by a 50 μl injection of 1 mM Dluciferin potassium salt (BD Pharmingen, San Jose, Calif.); luminescence was measured for 2 sec. […]

[2] = system: HIV-1JR-FL E168K+N188AΔCT Env trimer; assay: PG9 antibody binding to cell-surface Env trimer (flow cytometry)
Procedure: Flow cytometry. […] After 48-72 hours, cells were detached with 5 mM EDTA/PBS and between 0.5-1 million cells were briefly incubated with various concentrations of 18A and then with or without the indicated concentrations of sCD4. C34-Ig (at a final concentration of 20 μg/ml) or a specified antibody (at final concentration of 1 μg/ml) was added to the cells. […] Cells were washed twice and analyzed with a BD FACSCanto II flow cytometer (BD Biosciences). For analysis of resistant mutants (FIG. 5e-g), the measurements were normalized for the level of sCD4 binding of each mutant, and the response of each mutant was further normalized to that of the wild-type HIV-1JR-FL E168K+N188AΔCT Env (herein designated WTKA). […] The sCD4 IC50/sCD4 binding ratio (FIGS. 4c and e) was calculated as follows. Binding of sCD4 to different envelope mutants was measured by flow cytometry and normalized first to 2G12 binding to account for potentially different Env expression levels, and then to sCD4 binding to the wild-type HIV-1JR-FL Env. The IC50 of sCD4 for inhibition of virus infection by each mutant Env was divided by the normalized sCD4 binding to Env-expressing cells to calculate the sCD4 IC50/sCD4 binding value.

O=C(N/N=C/c1ccc(O)cc1)Nc1cccc2nsnc12 [Compound 18A]
pIC50 ([1]; read-out: IC50 values of the majority (75%) of CCR5-using HIV-1 isolates): > 5.22 | pIC50 ([1]; read-out: average IC50 for all CCR5-using HIV-1 isolates): 5.24 | inhibition of infection (HIV-1KB9): relatively resistant to inhibition | PG9 binding ([2]; 18A added prior to sCD4 incubation, 37.6% without sCD4, 6.6% with sCD4 alone): 24.1% | basal level of PG9 binding ([2]; absence of sCD4): did not affect
